Patent US10597388B2, “Pyridazinone herbicides” (FMC CORPORATION, priority 2014, dated 2020)

Columns and labels:
Assay in all cases: Test C greenhouse herbicide test, pre- and postemergence
Format in all cases: in vivo
[1] = system: lambsquarters (Chenopodium album)
Outline: (§1)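 Pre- and postemergence greenhouse screen; values are visual control ratings, 0 meaning no effect and 100 complete kill, assigned relative to untreated plants after 13 to 15 d.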

corn (Zea mays) = system: corn (Zea mays)
Outline: as §1

[2] = system: oilseed rape (Brassica napus)
Outline: as §1

[3] = system: velvetleaf (Abutilon theophrasti)
Outline: as §1

[4] = system: foxtail, giant (giant foxtail, Setaria faberii)
Outline: as §1

[5] = system: galium (catchweed bedstraw, Galium aparine)
Outline: as §1

[6] = system: waterhemp (common waterhemp, Amaranthus rudis)
Outline: as §1

[7] = system: ryegrass, Italian (Italian ryegrass, Lolium multiflorum)
Outline: as §1

[8] = system: wheat (winter wheat, Triticum aestivum)
Outline: as §1

[9] = system: morningglory (Ipomoea coccinea)
Outline: as §1

[10] = system: pigweed (Amaranthus retroflexus)
Outline: as §1

[11] = system: ragweed (common ragweed, Ambrosia elatior)
Outline: as §1

[12] = system: blackgrass (Alopecurus myosuroides)
Outline: as §1

[13] = system: barnyardgrass (Echinochloa crus-galli)
Outline: as §1

[14] = system: crabgrass, large (large crabgrass, Digitaria sanguinalis)
Outline: as §1

[15] = Postemergence, 31 g ai/ha, 0 to 100 scale (0 no effect, 100 complete control)
[16] = Postemergence, 125 g ai/ha, scale 0 to 100, 0 is no effect, 100 is complete control
[17] = Postemergence, 250 g ai/ha, scale 0 to 100, 0 no effect, 100 complete control, 13 to 15 d
[18] = Preemergence, 31 g ai/ha, scale 0 to 100, 0 is no effect, 100 is complete control
[19] = Preemergence, 62 g ai/ha, scale 0 to 100, 0 is no effect, 100 is complete control
[20] = Preemergence, 125 g ai/ha, scale 0 to 100, 0 is no effect, 100 is complete control
[21] = Preemergence, 250 g ai/ha, scale 0 to 100, 0 no effect, 100 complete control
[22] = postemergence, 62 g ai/ha, scale 0 to 100, 0 no effect, 100 complete control

Cn1nc(Br)c(O)c(-c2cccc3ccccc23)c1=O [Compound 20]
Lambsquarters plant response rating [1, 15]: 80
Plant response rating, Lambsquarters [1, 16]: 100
Plant response rating, Lambsquarters [1, 17]: 100
Plant response rating, Lambsquarters [1, 18]: 80
Plant response rating, Lambsquarters [1, 19]: 85
Plant response rating, Lambsquarters [1, 20]: 85
Lambsquarters plant response rating [1, 21]: 90
Lambsquarters plant response rating [1, 22]: 85
Corn plant response rating (corn (Zea mays); [15]): 5
Plant response rating, Corn (corn (Zea mays); [16]): 5
Plant response rating, Corn (corn (Zea mays); [17]): 10
Plant response rating, Corn (corn (Zea mays); [18]): 0
Plant response rating, Corn (corn (Zea mays); [19]): 0
Plant response rating, Corn (corn (Zea mays); [20]): 5
Corn plant response rating (corn (Zea mays); [21]): 35
Corn plant response rating (corn (Zea mays); [22]): 5
Oilseed Rape plant response rating [2, 15]: 0
Plant response rating, Oilseed Rape [2, 16]: 5
Plant response rating, Oilseed Rape [2, 17]: 25
Plant response rating, Oilseed Rape [2, 18]: 0
Plant response rating, Oilseed Rape [2, 19]: 0
Plant response rating, Oilseed Rape [2, 20]: 0
Oilseed Rape plant response rating [2, 21]: 20
Oilseed Rape plant response rating [2, 22]: 0
Velvetleaf plant response rating [3, 15]: 25
Plant response rating, Velvetleaf [3, 16]: 85
Plant response rating, Velvetleaf [3, 17]: 100
Plant response rating, Velvetleaf [3, 19]: 90
Plant response rating, Velvetleaf [3, 20]: 100
Velvetleaf plant response rating [3, 21]: 100
Velvetleaf plant response rating [3, 22]: 25
Foxtail, Giant plant response rating [4, 15]: 0
Plant response rating, Foxtail, Giant [4, 16]: 45
Plant response rating, Foxtail, Giant [4, 17]: 80
Plant response rating, Foxtail, Giant [4, 18]: 5
Plant response rating, Foxtail, Giant [4, 19]: 30
Plant response rating, Foxtail, Giant [4, 20]: 65
Foxtail, Giant plant response rating [4, 21]: 85
Foxtail, Giant plant response rating [4, 22]: 25
Galium plant response rating [5, 15]: 98
Plant response rating, Galium [5, 16]: 100
Plant response rating, Galium [5, 17]: 100
Plant response rating, Galium [5, 18]: 90
Plant response rating, Galium [5, 19]: 100
Plant response rating, Galium [5, 20]: 95
Galium plant response rating [5, 21]: 95
Galium plant response rating [5, 22]: 100
Waterhemp plant response rating [6, 15]: 70
Plant response rating, Waterhemp [6, 16]: 60
Plant response rating, Waterhemp [6, 17]: 90
Plant response rating, Waterhemp [6, 19]: 100
Plant response rating, Waterhemp [6, 20]: 100
Waterhemp plant response rating [6, 21]: 100
Waterhemp plant response rating [6, 22]: 40
Ryegrass, Italian plant response rating [7, 15]: 55
Plant response rating, Ryegrass, Italian [7, 16]: 80
Plant response rating, Ryegrass, Italian [7, 17]: 90
Plant response rating, Ryegrass, Italian [7, 18]: 75
Plant response rating, Ryegrass, Italian [7, 19]: 95
Plant response rating, Ryegrass, Italian [7, 20]: 95
Ryegrass, Italian plant response rating [7, 21]: 95
Ryegrass, Italian plant response rating [7, 22]: 60
Wheat plant response rating [8, 15]: 0
Plant response rating, Wheat [8, 16]: 0
Plant response rating, Wheat [8, 17]: 0
Plant response rating, Wheat [8, 19]: 0
Plant response rating, Wheat [8, 20]: 35
Wheat plant response rating [8, 21]: 30
Wheat plant response rating [8, 22]: 0
Morningglory plant response rating [9, 15]: 100
Plant response rating, Morningglory [9, 16]: 100
Plant response rating, Morningglory [9, 17]: 100
Plant response rating, Morningglory [9, 18]: 85
Plant response rating, Morningglory [9, 19]: 98
Plant response rating, Morningglory [9, 20]: 98
Morningglory plant response rating [9, 21]: 100
Morningglory plant response rating [9, 22]: 100
Pigweed plant response rating [10, 15]: 75
Plant response rating, Pigweed [10, 16]: 98
Plant response rating, Pigweed [10, 17]: 100
Plant response rating, Pigweed [10, 18]: 100
Plant response rating, Pigweed [10, 19]: 100
Plant response rating, Pigweed [10, 20]: 100
Pigweed plant response rating [10, 21]: 100
Pigweed plant response rating [10, 22]: 90
Ragweed plant response rating [11, 15]: 80
Plant response rating, Ragweed [11, 16]: 95
Plant response rating, Ragweed [11, 17]: 100
Plant response rating, Ragweed [11, 18]: 35
Plant response rating, Ragweed [11, 19]: 45
Plant response rating, Ragweed [11, 20]: 70
Ragweed plant response rating [11, 21]: 75
Ragweed plant response rating [11, 22]: 85
Blackgrass plant response rating [12, 15]: 5
Plant response rating, Blackgrass [12, 16]: 10
Plant response rating, Blackgrass [12, 17]: 45
Plant response rating, Blackgrass [12, 18]: 0
Plant response rating, Blackgrass [12, 19]: 5
Plant response rating, Blackgrass [12, 20]: 40
Blackgrass plant response rating [12, 21]: 80
Blackgrass plant response rating [12, 22]: 10
Barnyardgrass plant response rating [13, 15]: 5
Plant response rating, Barnyardgrass [13, 16]: 30
Plant response rating, Barnyardgrass [13, 17]: 45
Plant response rating, Barnyardgrass [13, 18]: 5
Plant response rating, Barnyardgrass [13, 19]: 30
Plant response rating, Barnyardgrass [13, 20]: 60
Barnyardgrass plant response rating [13, 21]: 85
Barnyardgrass plant response rating [13, 22]: 10
Crabgrass, Large plant response rating [14, 15]: 5
Plant response rating, Crabgrass, Large [14, 16]: 10
Plant response rating, Crabgrass, Large [14, 17]: 30
Plant response rating, Crabgrass, Large [14, 18]: 10
Plant response rating, Crabgrass, Large [14, 19]: 15
Plant response rating, Crabgrass, Large [14, 20]: 15
Crabgrass, Large plant response rating [14, 21]: 60
Crabgrass, Large plant response rating [14, 22]: 10
